Measured values reported in patent publication US12319694B2, “Heterocyclic nitrogen-containing purine derivatives, pharmaceutical preparations containing these derivatives and their use in neuroprotection” (UNIVERZITA PALACKEHO, priority 2019, dated 2025).
Where “and” joins values, the source holds several entries; their conditions need not be identical. Equal values may be shown once.

Tests used:
[1] = Calcein AM viability test on ATRA-differentiated SH-SY5Y cells; format: cell-based, human; conditions: human, ATRA-differentiated SH-SY5Y neuroblastoma cells, DMSO control = 100%, read-out: % of viability, relative to control; for viability at 24 h, 0.1 µM: 0.1 μM compound; for viability at 24 h, 1 µM: 1 μM compound; for viability at 24 h, 10 µM: 10 μM compound
Protocol: (§1) The SH-SY5Y human neuroblastoma cell line obtained as kind gift from Walter d'Acunto (originally purchased from ATCC—American Type Culture Collection (Manassas, VA, USA) was cultivated in Dulbecco's modified Eagle's Medium and Ham's F12 Nutrient Mixture (DMEM:F-12, 1:1), supplemented with 10% fetal bovine serum (FBS) and 1% penicillin and streptomycin at 37° C. in a humidified atmosphere 5% CO2, 95% air in passage limit up to ATCC+15. The assay was performed in 96-well microplate with 7000 SH-SY5Y cells per well. Next day, SH-SY5Y underwent all-trans retinoic acid (ATRA)-differentiation for 48 h (ATRA 10 μM). After 48 h, old DMEM/F12 media was removed by fresh media containing tested compounds at 0.1, 1 and 10 μM concentrations for 24 h. The tested compounds were dissolved in DMSO were added into the medium. The maximum concentration of DMSO in media was kept below 0.1% (v/v). The cell viability was measured by Calcein AM (1 mg/ml ThermoFisher) viability assay. Solution of Calcein AM in PBS (0.5 uM) was pipetted to cells and incubated for 50 minutes. After that the fluorescence was measured at 488/517 nm (excitation/emission) using microplate reader Infinite M200 (TECAN). Calcein AM assay is based on the dye-intracellular-esterase cleavage of non-fluorescent dye (Calcein AM) by living cells to fluorescent dye (Calcein), while dyeing cells that lose such ability. The values in Table 4 show % of viability, relative to control of all tested compounds. The control (medium with DMSO, <0.1% (v/v)) was postulated as 100% viability (see the first line of the table).

[2] = tested on: SH-SY5Y human neuroblastoma cell line (differentiated phenotype); experiment: Viability test, salsolinol-induced model of Parkinson's disease in differentiated SH-SY5Y (Calcein AM); format: cell-based; conditions: 24 h
Protocol: as §1
Similarly, to the previous test the assay was performed in 96-well microplates with 7000 SH-SY5Y cells per well. Day after the seeding of cells, SH-SY5Y underwent all-trans retinoic acid (ATRA)-differentiation for 48 h (ATRA 10 μM). After 48 h, old DMEM/F12 media was removed by fresh media containing 500 μM dopaminergic neurotoxin Salsolinol (SAL) without or with tested compounds at 0.1, 1 and 10 μM concentrations. […] After 24 h the cell viability was measured by Calcein AM viability assay.

Nrf2 = experiment: Activation of Nrf2-dependent expression, EpRE-LUX reporter cell line; format: cell-based; conditions: 24 h; tested at 100, 10, 1 and 0.1 μM, concentration of the printed value not stated; mean ± SD (n = 3)
Protocol: The ability of compounds to activate Nrf2-dependent expression was determined by EpRE-LUX reporter cell line. In brief, compounds at 100, 10, 1 and 0.1 μM concentrations of the tested compounds were incubated for 24 h with the cells. After cells lysis (10 mM Tris, 2 mM DTT), a buffer containing 0.2 mM luciferin was added to start luminescent reaction. The increase in luminescence was measured with microplate reader Infinite M200 (TECAN). Compounds with Nrf2 value higher than 0 are strong Nrf2 activators and thus will be useful agents for the treatment of neurodegenerative diseases associated with oxidative stress.

[3] = tested on: SH-SY5Y human neuroblastoma cell line; experiment: Oxidative stress measurement (dihydroethidium, superoxide) in SH-SY5Y, salsolinol-induced model of PD; format: cell-based; conditions: 6 h; for activity at 1 µM: 1 μM compound with SAL 500 μM; for activity at 1 µM / activity at 10 µM: read-out: Oxidative stress (% of control); for activity at 10 µM: 10 μM compound with SAL 500 μM
Protocol: The assay was performed in 96-well microplate with 7000 cells/well. Next day, SH-SY5Y underwent differentiation protocol for 48 h see above. Treatment procedure remained the same as in previous section (Cell treatment and viability/cytotoxicity assays). Additionally, oxidative stress (OS) inducers such as 6-hydroxydopamine (6-OHDA) and glutamate (Glu) alone were used as […]. Negative controls determined threshold of excessive OS. […] After 30 minutes, DHE was read at 500 nm/580 nm (excitation/emission). DHE is cell permeable dye which is selective toward superoxide radical detection.

[4] = Radical scavenging activity by ORAC assay; conditions: NAUC relative to trolox; mean ± SD (n = 3)
Protocol: The ability of compounds to scavenge free radicals in vitro was determined by Oxygen Radical Absorbance Capacity (ORAC) method. In brief, fluorescein (100 μL, […]) and 25 μL of tested compound solution were added into each working well in a 96-well microplate preincubated at 37° C. Thereafter, 25 μL of 250 mM 2,2′-azobis(2-amidino-propan)dihydrochloride (AAPH) was quickly added, microplate was shaken for 5 s and the fluorescence (Ex. 485 nm, Em. 510 nm) was read every 3 min over 90 min by using microplate reader Infinite 200 (TECAN, Switzerland). The NAUC value (Net Area Under Curve) was used to express antioxidant activity relative to trolox (hydrophilic equivalent of vitamin E postulated as a standard). Substances with an ORAC value greater than 0 actively trap free radicals.

[5] = 0.1 μM compound with 500 μM Salsolinol
[6] = 1 μM compound with 500 μM Salsolinol
[7] = 10 μM compound with 500 μM Salsolinol

SMILES	viability at 24 h, 0.1 µM [1]	viability at 24 h, 1 µM [1]	viability at 24 h, 10 µM [1]	Neuroprotective effect (% of control) [2, 5]	Neuroprotective effect (% of control) [2, 6]	Neuroprotective effect (% of control) [2, 7]	Nrf2 (relative luminiscence) (Nrf2)	activity at 1 µM ([3]; Homo sapiens, SH-SY5Y)	activity at 10 µM ([3]; Homo sapiens, SH-SY5Y)	ORAC (compound/trolox) [4]	reduction of oxidative stress induced by Salsolinol (in words) ([3]; SAL 500 μM, compounds 1 and 10 μM)	activity at 30 µM ([3]; Homo sapiens, SH-SY5Y, 6-OHDA 30 μM alone (negative control))	Oxidative stress (% of control) ([3]; Glu 160 mM alone (negative control))	decrease in percentages of alive cells ([2]; 500 μM Salsolinol alone)	Oxidative stress (% of control) ([3]; Salsolinol 500 μM alone, DMSO control = 100%)
c1ccc(Cn2cnc3c(N4CCOCC4)nc(N4CCOCC4)nc32)cc1 [Compound 4, 2,6-dimorpholino-9-benzylpurine]	106%	113%	146%	1.70 % of control	8.11 % of control	21.12 % of control	0.19 ± 0.02 relative luminiscence	106%	155%	0.007 ± 0.002 compound/trolox					
c1ccc(Cn2cnc3c(N4CCSCC4)nc(N4CCSCC4)nc32)cc1 [Compound 5, 9-benzyl-2,6-dithiomorpholino-9H-purine]	106%	126%	129%	7.03 % of control		19.89 % of control	0.17 ± 0.06 relative luminiscence	121%	135%	0.016 ± 0.001 compound/trolox	highest potency toward the reduction of oxidative stress				
NCCc1cc(O)c(O)cc1O [Compound 6-OHDA, 6-hydroxydopamine, reference compound]												215%			
Oc1cccc(Cn2cnc3c(N4CCCC4)nc(N4CCCC4)nc32)c1 [Compound 26, 9-(3-Hydroxybenzyl)-2,6-di(pyrrolidin-1-yl)-9H-purine]	108%	120%	142%	4.90 % of control	14.43 % of control	20.71 % of control	0.33 ± 0.06 relative luminiscence	107%	142%	0.126 ± 0.018 compound/trolox					
Clc1cccc(Cl)c1Cn1cnc2c(N3CCCC3)nc(N3CCCC3)nc21 [Compound 74, 9-(2,6-Dichlorobenzyl)-2,6-di(pyrrolidine-1-yl)-9H-purine]	111%	138%	152%	8.57 % of control	20.24 % of control	22.35 % of control	0.38 ± 0.08 relative luminiscence	126%	179%						
CC(=O)N(O)CCCCCNC(=O)CCC(=O)N(O)CCCCCNC(=O)CCC(=O)N(O)CCCCCN [Deferoxamine, reference compound]				1.43 % of control	4.86 % of control	10.52 % of control			101%						
COc1cc2c(cc1OC)C(=O)C(CC1CCN(Cc3ccccc3)CC1)C2 (stereo not drawn) [Donepezil, reference compound]				2.76 % of control	6.73 % of control	14.25 % of control									
N[C@@H](CCC(=O)O)C(=O)O [Glu, glutamate, reference compound]													268.62 % of control		
C[C@@H]1NCCc2cc(O)c(O)cc21 [Salsolinol, reference compound]														30.7%	335.4 % of control and 335.36 % of control
Nc1nc(NCCc2ccc(O)cc2)nc2nc(-c3ccco3)nn12 [ZM241385, reference compound]				1.95 % of control	7.03 % of control	9.31 % of control			102%						
